Measured values from US20130165417A1, “METHODS AND COMPOSITIONS FOR TREATING ACE2-RELATED DISORDERS” (UNIVERSITY OF FLORIDA RESEARCH FOUNDATION, priority 2010, published 2013).
“Also recorded” adds a separate entry of the source.

Legend:
ACE2 [1] = target: T1, ACE2 (Homo sapiens, UniProt Q9BYF1); conditions: Donoghue et al. 2000, Tipnis et al. 2000; cited from earlier work
Target sequence in this assay (Q9BYF1 18-805): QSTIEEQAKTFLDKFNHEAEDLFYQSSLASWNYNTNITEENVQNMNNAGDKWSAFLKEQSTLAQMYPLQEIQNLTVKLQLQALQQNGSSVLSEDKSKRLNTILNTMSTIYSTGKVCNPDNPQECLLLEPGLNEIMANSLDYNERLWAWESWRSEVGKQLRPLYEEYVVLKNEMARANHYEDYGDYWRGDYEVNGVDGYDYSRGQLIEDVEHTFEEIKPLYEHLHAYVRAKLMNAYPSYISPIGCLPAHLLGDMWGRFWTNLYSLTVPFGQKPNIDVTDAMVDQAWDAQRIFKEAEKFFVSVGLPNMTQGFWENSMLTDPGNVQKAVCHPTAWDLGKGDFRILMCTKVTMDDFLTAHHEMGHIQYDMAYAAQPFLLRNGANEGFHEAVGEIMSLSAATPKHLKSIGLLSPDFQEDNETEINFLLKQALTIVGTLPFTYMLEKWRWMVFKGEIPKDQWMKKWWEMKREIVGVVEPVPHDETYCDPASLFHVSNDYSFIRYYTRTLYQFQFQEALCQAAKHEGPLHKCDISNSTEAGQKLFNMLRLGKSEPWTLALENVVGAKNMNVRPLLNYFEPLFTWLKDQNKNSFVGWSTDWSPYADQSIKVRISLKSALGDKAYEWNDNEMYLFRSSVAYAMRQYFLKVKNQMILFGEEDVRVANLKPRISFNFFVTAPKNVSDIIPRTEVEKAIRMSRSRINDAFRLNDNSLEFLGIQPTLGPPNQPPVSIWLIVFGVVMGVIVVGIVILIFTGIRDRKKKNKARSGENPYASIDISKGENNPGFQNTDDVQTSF

Recombinant ACE = target: T2, Recombinant ACE (Homo sapiens, UniProt P12821); assay: ACE activity assay with fluorogenic peptide substrate; type: biochemical; conditions: FIG. 2
T2 construct: purchased R&D Systems, Minneapolis, Minn; 929-ZN-10
T2 sequence (P12821 30-1306): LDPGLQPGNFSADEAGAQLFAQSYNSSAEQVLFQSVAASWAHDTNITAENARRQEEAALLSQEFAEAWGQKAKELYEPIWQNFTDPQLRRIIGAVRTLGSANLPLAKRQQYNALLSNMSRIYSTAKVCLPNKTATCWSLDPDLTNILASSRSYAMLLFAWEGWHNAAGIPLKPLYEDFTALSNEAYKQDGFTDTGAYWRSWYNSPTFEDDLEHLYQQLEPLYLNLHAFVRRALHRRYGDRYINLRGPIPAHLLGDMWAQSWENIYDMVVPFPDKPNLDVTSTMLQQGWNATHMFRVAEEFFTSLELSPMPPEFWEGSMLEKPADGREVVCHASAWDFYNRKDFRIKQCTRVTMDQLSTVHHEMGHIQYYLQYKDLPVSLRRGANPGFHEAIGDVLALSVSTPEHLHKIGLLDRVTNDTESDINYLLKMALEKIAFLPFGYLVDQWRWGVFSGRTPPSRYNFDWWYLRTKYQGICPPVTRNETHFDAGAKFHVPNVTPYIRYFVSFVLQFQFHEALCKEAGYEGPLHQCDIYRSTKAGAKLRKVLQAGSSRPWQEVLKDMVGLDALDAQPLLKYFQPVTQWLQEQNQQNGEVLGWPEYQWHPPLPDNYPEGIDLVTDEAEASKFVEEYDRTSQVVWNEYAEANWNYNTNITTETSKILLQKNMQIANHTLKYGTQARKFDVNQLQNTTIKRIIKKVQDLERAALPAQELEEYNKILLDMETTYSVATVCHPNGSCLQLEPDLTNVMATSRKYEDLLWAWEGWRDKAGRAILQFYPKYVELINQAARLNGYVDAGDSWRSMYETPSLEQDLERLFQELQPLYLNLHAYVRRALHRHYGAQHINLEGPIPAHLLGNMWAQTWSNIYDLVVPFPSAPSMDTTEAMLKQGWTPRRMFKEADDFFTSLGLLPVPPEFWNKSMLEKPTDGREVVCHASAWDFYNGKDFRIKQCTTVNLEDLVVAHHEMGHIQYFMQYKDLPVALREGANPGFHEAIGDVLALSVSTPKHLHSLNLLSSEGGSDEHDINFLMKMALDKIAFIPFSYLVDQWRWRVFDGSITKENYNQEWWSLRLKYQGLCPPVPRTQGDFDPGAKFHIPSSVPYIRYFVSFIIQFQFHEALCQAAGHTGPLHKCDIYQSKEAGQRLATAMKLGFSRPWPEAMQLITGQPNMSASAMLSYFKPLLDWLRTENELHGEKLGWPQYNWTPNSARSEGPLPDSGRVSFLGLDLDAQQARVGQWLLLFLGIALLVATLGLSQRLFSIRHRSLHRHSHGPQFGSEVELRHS
Procedure: (§1) Recombinant ACE and ACE2 are obtained in purified form from R&D Systems, Minneapolis, Minn. (catalog ID: 929-ZN-10 and 933-ZN-10, respectively). Substrates for ACE (fluorogenic peptide V, Mca-[…](Dnp)-OH, catalog ID: ES005), and for ACE2 (fluorogenic peptide VI, Mca-YVADAPK(Dnp)-OH, catalog ID: ES007) are obtained from R&D systems. Dry compounds are resuspended in 100% DMSO to prepare 100 mM stock solutions, according to the amount of compound and its molecular weight. Gentle heating to 60-80° C. is carried out to assist their solubilization. Compounds are further diluted to 50 mM stocks if clearly difficult to dissolve.
(§2) Activity of ACE and ACE2 are measured with a Spectra Max Gemini EM Florescence Reader (Molecular Devices). The enzyme removes the c-terminal dinitrophenyl moiety that quenches the inherent fluorescence of its 7-methoxycoumain group, resulting in an increase in fluorescence in the presence of enzyme activity. Fluorescence is measured with excitation and emission spectra of 328 nm and 392 nm, respectively. Reaction mixtures are prepared in 100 μl volumes and different concentrations of compound are tested against 10 μM substrate. 10 nM enzyme in 100 mM NaCl, 75 mM Tris, 0.5 μM ZnCl2, at pH 7.4. Samples are read every 15-20 seconds for at least 30 minutes immediately after the addition of fluorogenic peptide substrate at 37° C. […]

Wistar Kyoto rats (WKYs) = assay: Direct blood pressure and heart rate measurement after IV bolus, WKY rats; type: in vivo, rat
Procedure: (§3) Male Wistar-Kyoto (WKY) rats and spontaneously hypertensive rats (SHRs) were purchased from Charles River Laboratories (Wilmington, Mass., USA). All procedures were performed in conformity with approved Institutional Animal Care and Use Committee protocols and University of Florida regulations.
(§4) Cannulation of the animals (WKY rats and SHRs) was performed 24 h prior to the start of the drug administration and direct blood pressure (BP) measurement. Animals were anesthetized with a mixture of ketamine, xylazine, and acepromazine (30, 6, and 1 mg/kg, respectively). The two types of the cannulae used were: 1) a polyethylene cannula (PE-50, Clay Adams) introduced into the carotid artery for direct BP measurements and 2) a silicone elastomer cannula (Helix Medical) introduced into the descending jugular vein for acute intravenous (IV) bolus injections of the drug. Both cannulae were filled with heparin saline (40 U/mL, Sigma), and sealed with stylets. The IV drug administration of diminazene aceturate (DIZE) (LKT laboratories, St. Paul, Minn., USA) and the dose-response curves in WKYs and SHRs were obtained in awake, freely moving animals after a 24 h recovery period. Doses of diminazene aceturate (DIZE) (0.04, […], 0.6, 1.25, 2.5, 5 and 10 mg/kg) were administered as an IV bolus via the jugular cannula, and BP data recording was interfaced by a PowerLab (ADlnstruments) signal transduction unit. The data analysis was done using the Chart program (PowerLab system).

[2] = system: spontaneously hypertensive rats (SHRs); assay: Direct blood pressure and heart rate measurement after IV bolus, SHRs; type: in vivo, rat
Procedure: as §3, §4

[3] = system: monocrotaline (MCT) treated rats; assay: Monocrotaline (MCT) treated rats, pulmonary hypertension; type: in vivo, rat
[4] = system: models of pulmonary hypertension; assay: Two models of pulmonary hypertension; type: in vivo
myocardial infarction = assay: Myocardial infarction model of cardiac disease; type: in vivo
[5] = system: Endothelial progenitor cells harvested from pulmonary hypertensive patients; assay: Function of endothelial progenitor cells from pulmonary hypertensive patients; type: cell-based, human
Text: Another important finding is the effect of DIZE on stem cell function. Endothelial progenitor cells harvested from pulmonary hypertensive patients are dysfunctional and have decreased ability to repair vascular damage induced by the disease.

ACE2 [6] = target: T1, ACE2; assay: ACE2 activity assay with fluorogenic peptide substrate; type: biochemical; set-up: purchased R&D Systems, Minneapolis, Minn; 933-ZN-10
Procedure: as §1, §2
Target sequence in this assay (Q9BYF1 18-740 limits assumed): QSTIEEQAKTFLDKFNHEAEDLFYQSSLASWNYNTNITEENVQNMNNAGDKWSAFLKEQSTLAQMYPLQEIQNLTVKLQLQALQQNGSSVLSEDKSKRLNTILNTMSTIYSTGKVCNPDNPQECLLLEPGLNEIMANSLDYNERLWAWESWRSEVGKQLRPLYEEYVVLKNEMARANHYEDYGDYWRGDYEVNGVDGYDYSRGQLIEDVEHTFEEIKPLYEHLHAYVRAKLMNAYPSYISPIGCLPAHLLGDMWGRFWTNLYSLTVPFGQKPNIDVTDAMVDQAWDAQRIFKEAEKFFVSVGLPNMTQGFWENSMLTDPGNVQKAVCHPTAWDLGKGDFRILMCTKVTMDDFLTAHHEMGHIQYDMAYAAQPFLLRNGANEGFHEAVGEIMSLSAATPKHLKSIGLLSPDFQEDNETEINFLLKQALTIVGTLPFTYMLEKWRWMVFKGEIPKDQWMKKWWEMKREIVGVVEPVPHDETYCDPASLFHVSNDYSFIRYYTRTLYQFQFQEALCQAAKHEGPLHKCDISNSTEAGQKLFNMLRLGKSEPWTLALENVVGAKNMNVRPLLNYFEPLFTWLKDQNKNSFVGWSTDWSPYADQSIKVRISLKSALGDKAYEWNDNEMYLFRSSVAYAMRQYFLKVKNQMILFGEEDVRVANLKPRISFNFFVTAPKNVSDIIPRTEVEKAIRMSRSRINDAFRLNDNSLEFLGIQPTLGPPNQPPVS

In the case of `C[C@H](CS)C(=O)N1CCC[C@H]1C(=O)O` [captopril], the “effect on activity of ACE2” value (ACE2 [1]) is given as “do not significantly affect”.

For `N=C(N)c1ccc(N=NNc2ccc(C(=N)N)cc2)cc1` [DIZE, 4,4′-(1-Triazene-1,3-diyl)bis(benzenecarboximidamide)], the “effect on ACE activity” value (Recombinant ACE) was “increases ACE2 but not ACE activity”, the “reduction of mean arterial pressure (MAP)” value (Wistar Kyoto rats (WKYs); WKY rats, 5 mg/kg intravenous, n=6) was 50±9 mmHg and the “effect on heart rate” value (Wistar Kyoto rats (WKYs); WKY, acute IV bolus) was “does not affect the heart rate”. The “change in mean arterial pressure (MAP)” value (Wistar Kyoto rats (WKYs); WKYs, intravenous administration, result in words) was “transient and dose dependent decrease”, the “effect on heart rate” value ([2]; SHR, acute IV bolus) was “does not affect the heart rate” and the “reduction of mean arterial pressure (MAP)” value ([2]; SHRs, 5 mg/kg intravenous, n=6) was 85±11 mmHg. For the same compound, the “change in mean arterial pressure (MAP)” value ([2]; SHRs, intravenous administration, result in words) was “transient and dose dependent decrease; also recorded: greater reduction in blood pressure in SHRs compared to WKY control rats”, the “MCT-induced right ventricular fibrosis” value ([3]; FIG. 6) was “causes reversal” and the “Right Ventricular Systolic Pressure (RVSP) and Right Ventricular Hypertrophy (RVH), prevention” value ([3]; MCT treated rats, FIG. 4) was “prevents increase”. For the same compound, the “RVSP and RVH, reversal” value ([3]; MCT-treated rats, FIG. 5) was “reverses increases”, the progression of pathophysiology ([4]; administered after the development of pulmonary hypertension) was “arrested” and the “development of the disorder” value ([4]; pretreatment) was “completely prevents the development of these disorders”. The fibrosis ([4]; pretreatment) was “virtually absent”, the pulmonary pressure ([4]; pretreatment) was “nearly normalized” and the MI-induced cardiac dysfunctions (myocardial infarction; FIG. 3) was “attenuates”. The cardiac function (myocardial infarction; pretreatment) was “significantly improves cardiac function”, the “development of the disorder” value (myocardial infarction; pretreatment) was “completely prevents the development of these disorders” and the infarct area (myocardial infarction; pretreatment) was “reduces infarct area”. The “endothelial progenitor cell dysfunction (ability to repair vascular damage)” value [5] was “significantly improves this dysfunction”, the “maximal increase in ACE2 activity (Vmax)” value (ACE2 [6]; observed with 50 μM) was 2.3 fold and the “effect on ACE2 activity” value (ACE2 [6]; result in words) was “dose-dependent increase in ACE2 activity; also recorded: enhances specifically the ACE2 enzyme activity”.
